Here are results for 1 molecule from patent US20040171613A1, “Therapeutic agent for non-immediate type allergic diseases” (JAPAN TOBACCO INC., priority 2001, published 2004).

The structures appear in SMILES notation. pIC50: −log10 of the molar value.

Series [1] relates to DNFB-induced allergic dermatitis. As to the kind of experiment: murine DNFB-induced allergic dermatitis model. It counts as in vivo, mouse. The method, then: The model is produced by repeating antigen sensitization and induction in mouse to induce contact dermatitis that involves increase of IgE antibody titer, i.e., inflammation similar to atopic dermatitis (J. Allergy Clin. Immunol., 100 (6Pt2), 39-44, December 1997).
Furthermore, by dilution, 0.1 mg/mL and 0.01 mg/mL suspensions were prepared. In addition, as positive controls, 0.5 mg/mL, 0.2 mg/mL and 0.1 mg/mL solutions of prednisolone (Sigma) were similarly prepared.
During the period from the next day of the third antigen application to the next day of the fifth antigen application, 10 mL/kg of the above-described test compound was administered once a day 15 times in total.
The difference of thickness was used as an index of swelling. FIGS. 1 and 2 show the results of the measurement at the fourth and fifth antigen applications, together with the results of the positive controls.
24 hours after the fifth antigen application, the spleen was harvested from the mouse exsanguinated under anesthesia with ether. The wet weight of the spleen was measured.

Series [2] has as its target T1, CB2 (Homo sapiens, UniProt P34972). As to the kind of experiment: cAMP production in forskolin-stimulated hCB2-expressing CHO cells. The class given is cell-based. The arrangement: expressed in transfected cells; host or cells: CHO cells.
Target sequence in this assay (P34972 whole entry): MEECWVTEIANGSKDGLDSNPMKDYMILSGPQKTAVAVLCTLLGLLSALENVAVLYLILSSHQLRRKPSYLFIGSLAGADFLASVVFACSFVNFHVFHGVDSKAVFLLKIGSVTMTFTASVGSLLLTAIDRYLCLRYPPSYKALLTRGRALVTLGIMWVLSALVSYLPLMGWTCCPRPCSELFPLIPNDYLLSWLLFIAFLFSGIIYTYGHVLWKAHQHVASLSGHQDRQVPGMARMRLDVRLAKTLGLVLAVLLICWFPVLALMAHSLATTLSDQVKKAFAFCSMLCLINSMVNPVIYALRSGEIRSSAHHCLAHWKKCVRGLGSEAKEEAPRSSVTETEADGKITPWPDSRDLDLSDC
The target of series [3] is T1, CB2. The arrangement: host or cells: CHO cells expressing CB2. To be noted: cited from earlier work.
Target sequence in this assay (P34972 whole entry, species assumed): as the sequence (P34972 whole entry) above
Series [4] deals with spontaneous scratching reaction. The series can be described thus: spontaneous scratching reaction of NC mouse. To be noted: NC/Jic mice; oral once a day for 3 weeks; vs solvent control. The class given is in vivo. The text has this: Currently, NC mouse is used as an animal model of atopic dermatitis. No dermatitis or scratching action is observed when the mouse is kept in an environment under the control of atmospheric microorganisms (in SPF environment). However, when the mouse is kept in a conventional environment, scratching action together with the onset of dermatitis can be observed from about week 8 and the symptom progresses into chronic symptom (J. Dermatol. Sci., 25, 20-28, 2001).
Preparation of solvent: MC was dissolved in tap water to prepare an aqueous 0.5% (w/v) MC solution.
As positive controls, betamethasone valerate (Sigma) and tacrolimus hydrate (extracted from Prograf (Fujisawa Pharmaceutical Co., Ltd.)) were similarly prepared to 1 mg/mL. Betamethasone valerate is one of the adrenocorticosteroids that is considered to be effective for the treatment of atopic dermatitis. Tacrolimus hydrate is a therapeutic agent of atopic dermatitis which is known as an immunosuppressor as described above.
The mice (A) were taken away from the cage and the NC/Jic mice were used at the age of 16 weeks.
Breeding conditions: The mice were fed with solid feed CA-1 (CLEA JAPAN INC.) ad libitum and tap water as drinking water ad libitum, and kept at a temperature of 22±2° C. and a humidity of 55±10% under lighting from 8:00 a.m. to 20:00 p.m.
From 10 days before the start of the experiment, the number of scratching behavior with hind legs of the mice was visually counted (for 20 minutes; once daily) over 2 days or 3 days. Among the plural mice counted, mice with 50 or more average scratching movements per day were selected for use.
The behavior of the mice was filmed under unattended environment with a video camera to count the scratching motion with hind legs for one hour. […] This series of scratching motions was counted as one scratching movement, and all such scratching movements were counted irrespective of scratched sites. The measurement was done on the starting day of administration, and one day, 3, 6, 10, 13, 17 and 20 days after the start of administration. […]

Series [5] concerns IgE-dependent allergic dermatitis. To be noted: mouse, in vivo, po.
Experimental: (§1) Using a triphase dermatitis model that can be induced by antigen in mouse passively sensitizationed with IgE, the actions of CB2 inverse agonist and CB2 agonist were examined.
(§2) *Animal: 8 to 10 weeks-old Female BALB/c mouse (Japan SLC Inc.) was used.
(§3) Preparation of solvent: MC was dissolved in distilled water to prepare an aqueous 0.5% MC solution.
(§4) Anti-DNP IgE (antibody against DNP; Yamasa Corp.) was prepared to 15 μg/mL with physiological saline. 0.2 mL of the resulting solution was given through the caudal vein to the mouse.
(§5) Antigen preparation: 0.15% (w/v) of DNFB (2,4-dinitrofluorobenzene) was prepared in a mixed solution of acetone and olive oil (3:1, v/v) on needed basis.
(§6) Antigen application: 25 μl of the antigen solution was applied on each side of both of the ears 24 hours after the administration of the anti-DNP IgE.
(§7) From the next day of the antigen application to day 8 after the antigen application, 10 mL/kg test compound was orally administered once a day 9 times in total. On the day of antigen application, the test compound was administered one hour before the antigen application and the test compound was administered one hour before the measurement of the thickness of the ear on day 8 after the antigen application.
(§8) Before and 8 days after the antigen application, the thickness of the ear was measured with a dial thickness gauge (Mitutoyo Corp.). The difference between the value measured before the antigen application and at each time point was used as an index of swelling.
(§9) After the measurement of ear swelling, spleen and thymus were harvested to weigh their wet weights.
For series [6], the system named is rat mast cell line RBL-2H3. The series can be described thus: leukotriene production from rat mast cell line. To be noted: anti-DNP IgE sensitization, DNP-BSA stimulation; 0.1 to 10 μM. It counts as cell-based. The method, then:
Then, the resulting solutions were diluted with E-MEM (EAGLE-MEM; Nikken Biomedical Lab.) to prepare solutions of 100 to 1 μM (1% DMSO solution). To act the solutions on cells, they were further diluted to 10 μM to 0.1 μM (0.1% DMSO solution).
1 mM PIPES (Dojin Molecular Technologies, Inc.), […], 0.5 mM KCl, 0.06 mM MgCl2, 0.1 mM CaCl2, 0.55 mM glucose and 0.1% BSA (bovine serum albumin; Sigma) were prepared with purified water and then adjusted to pH 7.4 using NaOH.
1 mg/mL anti-DNP IgE (monoclonal murine anti-DNP IgE; Yamasa Corp.) was diluted to 1000 fold with the PIPES buffer to prepare a 1 μg/mL solution.
10 mg/mL DNP-BSA was diluted to a concentration of 10 μg/mL with the PIPES buffer.
Culture medium: E-MEM containing heat-inactivated 10% FCS (fetal calf serum; Morgate Biotech), 100 units/mL penicillin and 100 μg/mL streptomycin (in the form of penicillin/streptomycin; GIBCO).
After centrifuging and washing rat mast cell line RBL-2H3 (Human Science; 1×10^6cells/mL/tube) with the above-described culture medium, the cells were resuspended in the culture medium and cultured in a 75-cm^2 flask (Falcon 353136) for 3 days. […]
30 minutes after the antigen stimulation, 20 μL/well supernatant was recovered and the LTs amount was measured according to manufacturer's protocol of LTs EIA kit (Amersham Pharmacia).

For series [7], the system named is IgE-dependent allergic dermatitis. To be noted: mouse, in vivo.
Experimental: as §1, §2, §3, §4, §5, §6, §7, §8, §9
For the next series, the target named is CB1 (Homo sapiens, UniProt P21554). To be noted: from JP-A 2000-256323, Table 33; cited from earlier work.
Chain of CB1 (P21554 whole entry, species assumed): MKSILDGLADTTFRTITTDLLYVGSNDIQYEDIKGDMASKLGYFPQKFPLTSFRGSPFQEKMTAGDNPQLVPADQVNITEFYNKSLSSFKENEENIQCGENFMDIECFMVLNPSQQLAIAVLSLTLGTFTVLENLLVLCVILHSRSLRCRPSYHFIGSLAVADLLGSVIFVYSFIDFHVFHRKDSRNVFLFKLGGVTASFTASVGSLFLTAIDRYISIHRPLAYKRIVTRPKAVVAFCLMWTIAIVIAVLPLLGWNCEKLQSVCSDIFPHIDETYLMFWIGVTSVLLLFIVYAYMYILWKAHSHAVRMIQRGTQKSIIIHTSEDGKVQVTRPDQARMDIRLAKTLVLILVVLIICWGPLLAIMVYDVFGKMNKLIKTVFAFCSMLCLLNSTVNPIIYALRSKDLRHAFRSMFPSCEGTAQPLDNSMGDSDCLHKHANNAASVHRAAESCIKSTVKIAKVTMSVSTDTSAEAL

For `CCCCCOc1c(OC)ccc2cc(C(=O)NCc3ccc4c(c3)OCO4)c(=O)[nH]c12` [Compound A, N-(benzo[1,3]dioxol-5-ylmethyl)-7-methoxy-2-oxo-8-pentyloxy-1,2-dihydroquinoline-3-carboxamide], the spleen wet weight result in series [1] (24 hours after the fifth antigen application, oral dosing) was “No decrease of spleen weight”. The “ear swelling (increase of the thickness of the ear)” value in series [1] (BALB/c mouse, oral once a day from day after third antigen application, 24 hours after fourth and fifth antigen application) is on record as “significantly suppressed ear swelling”. For the same molecule, on CB2 [2], the “effect on agonistic action of 2-AG-E” value was “suppress the agonistic action of 2-AG-E”. Further, the cAMP production relative to control at 0.1 µM on CB2 [2] (CHO, read-out: Amount of cAMP production compared to control (ratio (%))) turned out to be 430%. Also, the “forskolin-stimulated cAMP production” value at CB2 [3] is reported as “elevate the production of cyclic adenosine-phosphate (cAMP)”. In addition, the “number of scratching movements” value in series [4] is reported as “suppressed the number of scratching movements”. In series [5], the “wet weight of the spleen” value is “no apparent changes” and the “wet weight of the thymus” value is on record as “no apparent changes”. Moreover, the “leukotriene production (C4/D4/E4)” value in series [6] was “suppressive effect”. In addition, in series [7], the “ear swelling, very late phase” value is “significantly suppressed ear swelling”. For the same molecule, the pIC50 (in general, the negative decadic logarithm of the IC50, by convention in mol/L) at CB1 is 5.46.
